Results published in PubChem BioAssay (NCI).
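1) Cells in 96-well plates. 2) Compound, 48 h, 5 concentrations. 3) Linear interpolation between surrounding doses. 4) Unreached endpoint = highest concentration. Here, GI50 denotes the concentration required for 50% inhibition of growth. TGI is the concentration that stops growth completely.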

Legend:
Assay in all cases: inhibition of tumour cell growth, NCI panel, 48 h
[1] = system: EKVX NSCLC
[2] = system: IGROV1 ovarian
[3] = system: A549 NSCLC
[4] = system: SW-620 colon
[5] = system: HCT-116 colon
[6] = system: HL-60(TB) leukemia
[7] = system: HS 578T breast
[8] = system: NCI-H522 lung
[9] = system: TK-10 renal
[10] = system: T-47D breast

| SMILES | GI50 [1] [µM] | TGI [1] [µM] | GI50 [2] [µM] | TGI [2] [µM] | GI50 [3] [µM] | TGI [3] [µM] | GI50 [4] [µM] | TGI [4] [µM] | GI50 [5] [µM] | TGI [5] [µM] | GI50 [6] [µM] | TGI [6] [µM] | GI50 [7] [µM] | TGI [7] [µM] | GI50 [8] [µM] | TGI [8] [µM] | GI50 [9] [µM] | TGI [9] [µM] | GI50 [10] [µM] | TGI [10] [µM] |
| --- | --- | --- | --- | --- | --- | --- | --- | --- | --- | --- | --- | --- | --- | --- | --- | --- | --- | --- | --- | --- |
| COc1cc(-c2nc3sc(C)cn3c2/C=C2\C(=O)Nc3ccccc32)c(Br)c(OC)c1OC | 39.3 | > 100 | 23.4 | > 100 | 44 | > 100 | 30.6 | > 100 | 26 | > 100 | 29.2 | > 100 | 31.5 | 74.6 | 22.2 | 57.3 | 32.9 | 77.5 | 47.7 | > 100 |
| CC(C)[C@@](O)(c1ccc2cc(OC(F)F)c(OC(F)F)cc2c1)c1cn[nH]n1 | 11 | 29.9 | 18.7 | 63.8 | 17.6 | 38.7 | 19.7 | 43.2 | 17.2 | 32 | 21.9 | 66.6 | 21.1 | 73.7 | 14.3 | 32.3 | 14.9 | 32.9 | 13.4 | 53.1 |
| COC(=O)c1cc2oc(/C=C3/SC(=S)N(N)C3=O)cc2n1Cc1ccccc1 | 7.17 | > 81.8 | 1.35 | 4.82 | 5.12 | 33.1 | 13.4 | > 29.5 | 5.73 | 18.9 | > 15.7 | > 100 | 0.699 | 3.5 | 7.81 | 21.8 | 3.2 | 11.8 | 3.33 | 10.1 |
| CC(C)(C)CC(C)(C)c1ccc(O)c(Cc2ccc(Cl)cc2Cl)c1 | 1.57 | 2.94 | 1.7 | 3.12 | 1.51 | 2.83 | 1.64 | 2.99 | 1.66 | 3.16 | 2.01 | 3.72 | 1.71 | 3.72 | 1.37 | 2.7 | 1.54 | 2.87 | 1.35 | 2.69 |
| Cn1cc(-c2nc(-c3c[nH]c4ncccc34)cs2)c2ccccc21 | 0.368 | 61.1 | 6.66 | > 100 | 26.6 | > 100 | 35.9 | > 100 | 24.2 | > 100 | 10.7 | > 100 | > 100 | > 100 | 12.3 | > 100 | 5.78 | 78.3 | 0.414 | 26.9 |
| COC(=O)[C@]12CC[C@@H](C)[C@H](C)[C@@H]1C1=CC[C@@H]3[C@@]4(C)C[C@@H](OC(=O)/C=C/c5ccccc5)[C@H](O)[C@@](C)(CO)[C@@H]4[C@H](O)C[C@@]3(C)[C@]1(C)CC2 | 2.94 | 11.7 | 3.61 | 14 | 3.11 | 12 | 1.93 | 4.2 | 1.95 | 3.79 | 2.63 | 6.51 | 1.88 | 4.71 | 1.53 | 3.36 | 2.26 | 6.33 | 2.34 | 10.9 |
| COC(=O)c1ccc(/C=C(\c2ccc([N+](=O)[O-])o2)S(=O)(=O)c2ccc(NC(C)=O)cc2)o1 |  | 26.3 |  | 28.4 |  | 34.1 |  | 11.8 |  | 8.39 |  | 8.69 |  | 6.34 |  | 5.02 |  | 16.2 |  | > 100 |
| CC(=O)CC/C=C(\C)[C@H](O)[C@H](C)C(=O)O[C@H]1C[C@H](C)C=C2C=C[C@@]3(C)O[C@@H](O)CC(=O)[C@]3(C)[C@H]21 | 0.877 | 4.64 | 0.42 | 3.42 | 1.24 | 9.17 | 0.449 | 9.03 | 0.307 | 1.89 | 1.42 | 4.22 | 0.492 | 4.48 | 0.566 | 4.19 | 0.942 | 5.5 | 0.309 | 2.54 |
| CN(C)CCCSc1ccccc1NC1=C(Cl)C(=O)C(Nc2ccccc2SCCCN(C)C)=C(Cl)C1=O | 1.81 | 3.38 | 1.39 | 3.44 | 5.43 | 17 | 2.17 | 4.38 | 1.52 | 2.93 | 0.69 | 2.91 | 3.14 | 21.4 | 1.07 | 2.89 | 2.22 | 3.7 | 1.45 | 3.98 |
| COc1cc([N+](=O)[O-])c(OC)cc1-c1nc2sc(C)cn2c1/C(N)=N/C(=N)N | 15.1 | 50.9 | 32.9 | > 100 | 40.7 | > 100 | 5.78 | > 100 | > 100 | > 100 | > 100 | > 100 | 25.2 | 89.2 | 26.5 | > 100 | 20.3 | 50.4 | > 100 | > 100 |
| O=C(c1ccccc1Cl)n1oc2ccccc2c1=O |  | > 100 |  | > 100 |  | > 100 |  | > 100 |  | > 100 |  | 51 |  | > 100 |  | > 100 |  | > 100 |  | > 100 |
| CCCCCCn1c(SC)nc(COC(=O)NC)c1COC(=O)NC |  | 27.1 |  | 30.5 |  | 31.5 |  | 64.4 |  | 31.7 |  | 56 |  | 40.3 |  | 23.5 |  | 31.2 |  | 35 |
| COc1ccc(C(=NN=C(N)N)c2ccc(OC)cc2)cc1 | 4.68 | 24.7 | 2.97 | 13.7 | 4.91 | 18.5 | 3.11 | 12.4 | 3.15 | 12.4 | 2.53 | 8.48 | 1.75 | 6.93 | 2.9 | 13.4 | 4.26 | 14.5 | 3.21 | 15.1 |
